According to patent US5750567A, “Farnesyl transferase inhibitors, preparation thereof and pharmaceutical compositions containing same” (Phone-Poulenc Rorer SA., priority 1995, dated 1998):
Counter-ions that a name gives are not always drawn.

Key:
[1] = target: T1, human farnesyl transferase (Homo sapiens, UniProt P49354+P49356); experiment: inhibition of farnesyl transferase (transfer of [3H]farnesyl from [3H]FPP to p21 H-Ras); type: biochemical; conditions: p21 H-Ras substrate, 20 minutes at 37° C.; 9 concentrations; read-out: Inhibitory activity IC50
T1 construct: human farnesyl transferase purified from THP1 cell cultures; endogenous in cells; host or cells: THP1 cells (enzyme purified from the cultures)
Procedure: Farnesyl transferase activity is determined by the quantity of [^3 H]farnesyl transferred from [^3 H]farnesyl pyrophosphate [[^3 H]FPP) to the p21 H-Ras protein. The standard reaction mixture is composed, for a final volume of 60 μl, of 50 mM Tris-HCl, 5 mM MgCl2, 5 mM dithiotreitol, 0.2% octyl β-D-glucopyranoside, 200 picomol p21 H-ras, 4.5 picomol [^3 H]FPP (activity 61000 dpm/picomol).
Reaction is initiated by adding approximately 5 ng of human farnesyl transferase purified from THP1 cell cultures. After incubation for 20 minutes at 37° C. in a microtitration plate containing 96 1-cm^3 wells per plate (Titer Plate®, Beckman), the reaction is stopped by adding 0.4 cm^3 of 0.1% SDS in methanol at 0° C. The mixture is then treated with 0.4 cm^3 of 30% trichloroacetic acid (TCA) in methanol. The plates are left in ice for 1 hour. […] The membranes are dried in a microwave oven, then impregnated with scintillation medium by melting of Meltilex® (Pharmacia) under hot air, and lastly counted in cpm in a β-Plate counter® (LKB). […]
The percentage inhibition values are obtained by comparison of the tests with and without inhibitor after deduction of blanks, the IC50 values being measured on the basis of the inhibitions obtained with 9 different concentrations using Enzfitter® or Grafit® software.

[2] = test system: farnesylation of the Ras protein in THAC line (CCL 39 cells transfected with activated Ha-Ras); experiment: activity against cells: inhibition of farnesylation of the Ras protein in THAC cells (Western blot); type: cell-based; conditions: CCL39, 24 hours at 37° C.
Procedure: The activity against cells can be determined in the following way:
The cell line is the THAC line (CCL 39 cells transfected with activated Ha-Ras) according to K. Seuwen et al., EMBO J., 7(1) 161-168 (1988). The cells are cultured in Petri dishes with a diameter of 6 cm containing a DMEM medium, 5% foetal calf serum and 1% G418.
After culturing for 24 hours, the culture medium is changed (with or without the serum).and the product to be studied is added in solution in dimethylformamide (DMF), in the presence or in the absence of DTT (final concentrations of 0.5% in DMF and 0.1 mM in DTT). After culturing for 24 hours at 37° C., the cells are lysed in 1 cm^3 of lysis buffer (20 mM Tris, HCl, 1% Triton X114, 5 mM MgCl2, 7 mM DTT, 150 mM NaCl, pH=7.4). The lysates are clarified by centrifuging at 4000 revolutions/minute for 10 minutes. […] The radioactivity of the bands corresponding to farnesylated Ras and to non-farnesylated Ras makes it possible to determine the percentage of inhibition of farnesylation of the Ras protein.

Work on `CSCC[C@H](NC(=O)C1CCCc2c(NC[C@@H](N)CS)cccc21)C(=O)O` (stereo partly drawn) [Example 2, trifluoroacetate of N-[5-(2(R)-amino-3-mercaptopropylamino)-1,2,3,4-tetrahydronaphthyl-1(R,S)-carbonyl]-(L)-methionine] yielded an IC50 [1] of 405 nM and an inhibition at 50 µM ([2]; 50 μM) of 50%.
`COC(=O)[C@H](CCSC)NC(=O)C1CCCc2c(NC[C@@H](N)CS)cccc21` (stereo partly drawn) [Example 1, trifluoroacetate of the methyl ester of N-[5-(2(R)-amino-3-mercapto-propylamino)-1,2,3,4-tetrahydronaphthyl-1(R,S)-carbonyl]-(L)-methionine] showed an IC50 [1] of 15 nM and an inhibition at 10 µM ([2]; 10 μM) of over 10%.
